From US20210038579A1, “Treatment Of Patients With Classic Fabry Disease” (Amicus Therapeutics, Inc., priority 2018, published 2021)
Residue numbers refer to the chain shown, from its start.

Columns and labels:
Experiment in all cases: HEK assay: α-Gal A activity in HEK-293 cell lysate with migalastat
Format in all cases: cell-based
[1] = biological target: T1, α-Gal A mutant form p.Arg301Gln (c.902 G > A) (Homo sapiens, UniProt P06280, R301Q)
T1 construct: expressed in transfected cells; host or cells: HEK-293
T1 sequence (P06280 32-429 R301Q): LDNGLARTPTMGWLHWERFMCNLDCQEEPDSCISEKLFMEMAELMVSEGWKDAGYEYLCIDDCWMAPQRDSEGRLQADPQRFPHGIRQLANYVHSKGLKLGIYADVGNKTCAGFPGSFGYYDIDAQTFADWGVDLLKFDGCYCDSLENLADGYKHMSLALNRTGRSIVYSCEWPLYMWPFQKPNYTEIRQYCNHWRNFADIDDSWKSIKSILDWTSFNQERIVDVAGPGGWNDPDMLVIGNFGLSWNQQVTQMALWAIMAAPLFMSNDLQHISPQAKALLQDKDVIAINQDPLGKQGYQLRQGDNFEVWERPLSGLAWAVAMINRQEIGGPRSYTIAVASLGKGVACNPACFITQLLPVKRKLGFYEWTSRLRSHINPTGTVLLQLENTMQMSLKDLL
How it was run: (§1)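 HEK-293 cells are transfected transiently with cDNA for each missense or small in-frame indel α-Gal A mutant. They are cultured ±migalastat across 17 nM to 1 mM over 4 to 5 days, after which lysate enzyme is quantified fluorogenically (4-MU-α-Gal) or by immunoblot.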

[2] = biological target: T2, α-Gal A mutant form p.Gly258Arg (c.772 G > C) (Homo sapiens, UniProt P06280, G258R)
T2 construct: expressed in transfected cells; host or cells: HEK-293
T2 sequence (P06280 32-429 G258R): T1 sequence (P06280 32-429 R301Q) with G227R, Q270R
How it was run: as §1

[3] = biological target: T3, α-Gal A mutant form p.Ile270Thr (c.809 T > C) (Homo sapiens, UniProt P06280, I270T)
T3 construct: expressed in transfected cells; host or cells: HEK-293
T3 sequence (P06280 32-429 I270T): T1 sequence (P06280 32-429 R301Q) with I239T, Q270R
How it was run: as §1

[4] = biological target: T4, α-Gal A mutant form p.Asp264Tyr (c.790 G > T) (Homo sapiens, UniProt P06280, D264Y)
T4 construct: expressed in transfected cells; host or cells: HEK-293
T4 sequence (P06280 32-429 D264Y): T1 sequence (P06280 32-429 R301Q) with D233Y, Q270R
How it was run: as §1

[5] = biological target: T5, α-Gal A mutant form p.Gly271Ser; Asp313Tyr (c.811 G > A; c.937 G > T) (Homo sapiens, UniProt P06280, D313Y/G271S)
T5 construct: expressed in transfected cells; host or cells: HEK-293
T5 sequence (P06280 32-429 G271S/D313Y): T1 sequence (P06280 32-429 R301Q) with G240S, Q270R, D282Y
How it was run: as §1

[6] = +10 μM migalastat, HEK-293 cell lysate, mean ± SEM, n = 20
[7] = HEK293, 10 μM migalastat minus baseline, read-out: Absolute increase at 10 μM (% WT)

## OC[C@H]1NC[C@H](O)[C@@H](O)[C@H]1O [migalastat]
[1]; 10 μM migalastat
  α-Gal A activity at 10 μM (fold over baseline): 8.12 fold over baseline
[1]; [6]
  +Migalastat α-Gal A activity: 15547 ± 353 nmol/mg/h
  +Migalastat α-Gal A activity % WT: 44.5 ± 1.0 % WT
[1]; [7]
  activation at 10 µM: 39%
[2]; 10 μM migalastat
  α-Gal A activity at 10 μM (fold over baseline): 2.37 fold over baseline
[2]; [6]
  +Migalastat α-Gal A activity: 22630 ± 801 nmol/mg/h
  +Migalastat α-Gal A activity % WT: 78.1 ± 5.8 % WT
[2]; [7]
  activation at 10 µM: 45.5%
[3]; 10 μM migalastat
  α-Gal A activity at 10 μM (fold over baseline): 6.73 fold over baseline
[3]; [6]
  +Migalastat α-Gal A activity: 12416 ± 377 nmol/mg/h
  +Migalastat α-Gal A activity % WT: 42.8 ± 3.0 % WT
[3]; [7]
  activation at 10 µM: 36.5%
[4]; 10 μM migalastat
  α-Gal A activity at 10 μM (fold over baseline): 12.89 fold over baseline
[4]; [6]
  +Migalastat α-Gal A activity: 1842 ± 100 nmol/mg/h
  +Migalastat α-Gal A activity % WT: 6.2 ± 0.3 % WT
[4]; [7]
  activation at 10 µM: 5.7%
[5]; 10 μM migalastat minus baseline
  Absolute increase at 10 μM (% WT): 3.0 % WT
[5]; [6]
  +Migalastat α-Gal A activity: 877 ± 18 nmol/mg/h
  +Migalastat α-Gal A activity % WT: 3.0 ± 0.2 % WT
